From the OPERA property sets (Mansouri et al. 2018)

| SMILES | logP |
| --- | --- |
| ClC1C(Cl)C(Br)C(Cl)C(Br)C1Cl (configuration not stated) | 3.98 |
| CS(=O)(=O)Oc1ccccc1Cc1cnc(N)nc1N | 0.71 |
| CCCNC1CC2CC1c1ccccc12 (configuration not stated) | 3.3 |
| Nc1nc(N)nc(-c2cc(F)ccc2Br)n1 | 1.45 |
| CC1C(C)N(N=O)C(C)C(C)N1N=O (configuration not stated) | 0.91 |
| CCOC(=O)C(=Cc1ccccc1C)C(C)=O | 2.66 |
| CCCCCCCC[n+]1ccccc1.[I-] | -0.84 |
| OCC1OC(Oc2cc(OC3OC(CO)C(O)C(O)C3O)c(I)cc2I)C(O)C(O)C1O (configuration not stated) | -0.25 |
| N=C(N)NC(=O)Nc1ccc(Cl)c(Cl)c1 | 2.39 |
| Cc1cc(-n2c(=O)cc(C)n2C)nc(C)n1 | 0.24 |
| CCCCCCCCCC[n+]1cc(C)cc(C)c1.[I-] | 0.76 |
| CCCOn1c(=O)c(Br)c(C)n(C)c1=O | 0.72 |
| OCC1OC(Oc2ccc(I)cc2)C(O)C(O)C1O (configuration not stated) | 0.75 |
| CCCCOc1cc(Cc2cnc(N)nc2N)c(C)cc1OC | 2.78 |
| COC(=O)C(C#N)=NNc1cc(Cl)cc(Cl)c1 | 4.5 |
| CCCCCCCCCCCCCCCC[n+]1ccc(C)cc1C.[I-] | 3.9 |
| COc1ccc(CN(C)N=Nc2ccc(C(=O)O)cc2)cc1 | 4.43 |
| COc1c(O)cc(Cc2cnc(N)nc2N)cc1O | -0.04 |
| CCOc1c(OC)cc(Cc2cnc(N)nc2N)cc1OC | 1.34 |
| CN1CCN=C1Nc1ncc([N+](=O)[O-])s1 | 1.8 |
| O=CN(Cc1ccccc1)c1ccccc1 | 2.62 |
| CNP(=O)(OC)Oc1cc(Cl)c(Cl)cc1Cl (configuration not stated) | 3.06 |
| COc1cc(C)nc2ccccc12 | 2.81 |
| COc1ccc(Cc2cnc(N)nc2N)cc1O | 0.74 |
| CN(C)C(=O)COc1ccccc1 | 0.8 |
| N=C(N)NC(=O)Nc1ccc([N+](=O)[O-])c(Cl)c1 | 1.79 |

| SMILES | logP |
| --- | --- |
| Clc1cc(Cl)c(N=C2NCCN2)c(Cl)c1 | 2.18 |
| O=[N+]([O-])c1ccc(/C=C/c2nnc[nH]2)o1 | 1.1 |
| O=NN(CCF)C(=O)NCCCl | 0.96 |
| CCC1(CC)OC(=O)c2ccccc21 | 2.69 |
| CCOC(=O)C(=Cc1ccc2c(c1)OCO2)C(C)=O | 2.35 |
| CCC(C)(Oc1ccc(Cl)cc1)C(=O)O (configuration not stated) | 2.9 |
| Cc1nnc(C)s1 | 0.03 |
| O=C1CCC(=O)N1c1cccc(F)c1 | 0.38 |
| O=C(NC(CO)C(O)c1cccc([N+](=O)[O-])c1)C(Cl)Cl (configuration not stated) | 1.15 |
| CCCCCc1nnc(N)o1 | 1.1 |
| CC1CN(N=O)CC(C)N1N=O (configuration not stated) | 0.08 |
| CCN(CC)c1nc(N(C)C)nc(N(C)C)n1 | 3.45 |
| CCCCCCCC1(CC)C(=O)NC(=O)NC1=O | 2.91 |
| CC(C)c1nnc(N2CCOCC2)n(N)c1=O | 0.49 |
| O=C1CN=C(c2ccccc2)c2cc([N+](=O)[O-])ccc2N1CC(O)CO (configuration not stated) | 0.96 |
| CC(=O)C(C#N)=NNc1ccccc1Cl | 4 |
| Clc1ncnc2sccc12 | 1.79 |
| O=C(Nc1n[nH]c(NC(=O)C(F)(F)F)n1)C(F)(F)F | 0.62 |
| Cn1c(=O)c(=O)n(C)c2ccccc21 | 0.08 |
| COc1cc(Cc2cnc(N)nc2N)cc(I)c1OC | 2.33 |
| CCOC(=O)C(C#N)=NNc1ccc([N+](=O)[O-])cc1[N+](=O)[O-] | 4.14 |
| S=C=Nc1ccc2cc3ccccc3cc2c1 | 5.7 |
| O=C(NC(CO)C(O)c1ccccc1)C(Cl)Cl (configuration not stated) | 0.94 |
| CN(C)Cc1ccco1 | 1.19 |
| O=[N+]([O-])c1nccn1CCS(=O)(=O)c1ccccc1 | 0.52 |
| COc1c(C)cc(Cc2cnc(N)nc2N)cc1C | 2.19 |

| SMILES | logP |
| --- | --- |
| CCCC(CO)n1cnc2c(N)ncnc21 (configuration not stated) | 0.66 |
| CC1N=C(c2ccccc2Cl)c2cc(Cl)ccc2N(C)C1=O (configuration not stated) | 3.4 |
| O=C1C=C(Nc2ccccc2)C(=O)c2ccccc21 | 2.84 |
| Cc1cc(NC(=O)NC(=N)N)ccc1Cl | 2.19 |
| c1ccc(Nc2ccccn2)cc1 | 2.75 |
| Cc1ncc([N+](=O)[O-])n1CCCS(C)(=O)=O | -1 |
| CC(C)CNCNC(=O)c1ccccc1 | 1.73 |
| O=NN1CCC(c2ccccc2)CC1 | 2.59 |
| C=CCS(=O)(=O)c1cc(OC)c(OC)c(OC)c1 | 1.34 |
| CCS(=O)(=O)c1cc(OC)c(OC)c(OC)c1 | 1.05 |
| O=C(O)COc1ccc(C2CCCC2)cc1 | 3.41 |
| CSc1nnc(C(C)C)c(=O)n1N | 1.01 |
| CN(/N=N/c1nc[nH]c1C(N)=O)C(C)(C)C | 0.94 |
| CC(=O)Nc1cc(OCC(=O)O)ccc1Cl | 0.75 |
| CCOC(=O)CN(C(=O)CCl)c1ccccc1OC | 1.78 |
| COc1cc(C)n(-c2ccncn2)n1 | 2.21 |
| O=C(O)Cc1ccc(OCc2ccccc2)cc1 | 2.72 |
| [Br-].c1ccc(CC[n+]2ccccc2)cc1 | -2.35 |
| CCCOn1c(=O)[nH]c(C)c(SC#N)c1=O | -0.22 |
| CC1=Nc2c(Cl)cccc2S(=O)(=O)N1 | 0.72 |
| CC1CN(C(=O)c2ccccc2)CC(C)N1N=O (configuration not stated) | 1.04 |
| S=C1CCCCCCCN1 | 1.44 |
| [N-]=[N+]=CC(=O)NCC(=O)NCCO | -1.35 |
| CCCCN(SN(C)C(=O)ON=C(C)SC)C(C)=O | 2.4 |
| FC(F)(F)c1nc2c(Br)c(Br)c(Br)cc2[nH]1 | 4.08 |
